US9952300B2, “Dynamic contrast enhanced MRI method and agents for the assessment of the macromolecular transport within pathologic tissues” (BRACCO IMAGING S.P.A., priority 2012, dated 2018)

What was measured:
[1] = target: Human Serum Albumin (Homo sapiens, UniProt P02768); settings: literature; cited from earlier work
[2] = tested on: A431 human epidermoid carcinoma xenografts; assay: Fluorescence microscopy of Cy5-CTX distribution in A431 xenografts after PTX or vehicle (Example 5); type: in vivo, NCR athymic nude mice
Procedure: Cy5-CTX: The fluorescently labeled monoclonal Antibody (mAb) was prepared in house, by conjugating the monoclonal antibody (3.51 mg/mL in citrate-TEA buffer, obtained by buffer exchange from the commercial glycine solution of the mAb) with the commercially available fluorescent cyanine Cy5-NHS ester by using typical and well experienced procedures known in the art. Molar ratio dye/mAb in the conjugated product=2. Albumin-Fluoresceinisothiocyanate: (Albumin-FITC, by Sigma-Aldrich, 10 mg/mL solution). Optical Imaging Protocol […]
Forty-five histological images were acquired, corresponding to approximately 3 sections per tumor. Each image consisted in a stack of two channels corresponding to the fluorescence signal obtained from the dye Cyanine 5 (Cy5) and Fluorescein isothiocyanate (FITC).
The spatial distribution of the Cy5-CTX staining was analyzed calculating for each pixel its distance from the nearest vessel wall using FITC-Alb images (Distance Map FIG. 9 panel c). In the corresponding Cy5-CTX image, the Cy5-CTX signal was then expressed as a function of the pixel distance from the vessel wall (CTX decay curve). […]
Fluorescent CTX decay curves were measured for each tumor section acquired by fluorescence microscopy over distances ranging from 0 to about 700 μm from the nearest vessel wall. […]

Chain of Human Serum Albumin (P02768 25-609): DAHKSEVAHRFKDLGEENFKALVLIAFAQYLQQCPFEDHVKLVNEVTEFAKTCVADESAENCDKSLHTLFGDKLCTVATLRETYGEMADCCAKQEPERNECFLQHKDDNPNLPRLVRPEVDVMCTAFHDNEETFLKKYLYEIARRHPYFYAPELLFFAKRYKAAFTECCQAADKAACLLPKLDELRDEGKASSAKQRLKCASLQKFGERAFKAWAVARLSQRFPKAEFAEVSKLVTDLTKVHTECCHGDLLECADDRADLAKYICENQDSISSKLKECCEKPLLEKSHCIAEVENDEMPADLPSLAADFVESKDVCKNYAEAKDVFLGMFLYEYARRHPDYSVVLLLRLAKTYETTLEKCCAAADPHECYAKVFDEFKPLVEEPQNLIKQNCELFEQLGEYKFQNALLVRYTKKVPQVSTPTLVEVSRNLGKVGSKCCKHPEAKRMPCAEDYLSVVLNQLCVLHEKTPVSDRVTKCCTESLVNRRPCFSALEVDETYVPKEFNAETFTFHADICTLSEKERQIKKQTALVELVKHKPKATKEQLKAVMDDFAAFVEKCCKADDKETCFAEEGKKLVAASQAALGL

Structure (SMILES)	non-covalent binding with Human Serum Albumin [1]	Cy5-CTX fluorescence (fAUC), treated versus untreated tumors ([2]; between 400 and about 700 μm from the nearest vessel wall)	Cy5-CTX fAUC, treated versus untreated tumors ([2]; whole tested range from 0 to 700 μm)
C[C@H](CCC(=O)[O-])[C@H]1CC[C@H]2[C@@H]3CC[C@@H]4C[C@@H](NC(=O)CC[C@@H](C(=O)[O-])N(CCN(CC(=O)[O-])CC(=O)[O-])CCN(CC(=O)[O-])CC(=O)[O-])CC[C@]4(C)[C@H]3C[C@H](O)[C@]12C.[Gd+3].[Na+].[Na+].[Na+] [B22956/1, Gadocoletic acid trisodium salt]	about 95%		
CC(=O)O[C@H]1C(=O)[C@@]2(C)[C@H]([C@H](OC(=O)c3ccccc3)[C@]3(O)C[C@H](OC(=O)[C@H](O)[C@@H](NC(=O)c4ccccc4)c4ccccc4)C(C)=C1C3(C)C)[C@]1(OC(C)=O)CO[C@@H]1C[C@@H]2O [PTX, Paclitaxel]		higher fluorescence	No differences
